For data set [1], the system named is bleomycin-induced pulmonary fibrosis. As to conditions: mouse, in vivo.
Excerpt: FIG. 14A depicts representative histologic findings of lung inflammation and fibrosis. […] FIG. 14B depicts a quantitative evaluation of fibrotic changes (Ashcroft scores), n=32 (8 mice per group).
Mice (n=6), C57BL/6 male were used in this study. Mice were maintained in animal quarters specially designated for pathogen-free mice and were provided with food and water ad libitum. Lung injury was induced by intratracheal instillation of bleomycin (2 U/kg in saline) under isoflurane anesthesia. Control mice received same volume of saline. […] Control mice received 10 mg/kg scrambled peptide. Animals were sacrificed in 3 weeks, and lungs were harvested and processed for tissue staining.
Sacrificed mice were subjected to midline thoracotomy. […]
To evaluate the stages of lung fibrosis, multiple sections from each lung were stained with Hematoxylin and eosin (H & E staining) or with trichrome staining for collagen and other extracellular matrix proteins. Fibrosis quantification was performed by using 0 (normal) to 8 (total fibrosis) Ashcroft scale (Ashcroft, et al., J Clin Pathol, 1988, 41:467-470). Morphological changes such as the thickness of alveolar septa, accumulation of vascular component and connective tissue, infiltration of inflammatory cells were analyzed. For histological evaluation each specimens were divided in 10 non-overlapping fields and scored independently. […]
Data set [2] deals with scleroderma LF transfected with MET WT or MET D1398G. As to the kind of experiment: Collagen, SMA, CTGF in transfected scleroderma lung fibroblasts, Western blot. It is filed as cell-based, human. As to conditions: 50 ng/ml for 48 hours. How it is done: FIG. 2, comprising FIG. 2A and FIG. 2B, depicts Expression of type I collagen, SMA, and CCN2 in scleroderma lung fibroblasts (LF) transfected with MET WT and MET D1398G. FIG. 2A depicts transfected SSc LF were serum-starved for 24 hours followed by incubation for 48 hours with recombinant HGF (50 ng/ml). The cells were collected with lysis buffer and analyzed by Western blot with indicated antibodies including MET as a transfection efficiency control. Anti-β-actin antibody was used as a loading control. FIG. 2B depicts quantitative results of densitometric analysis of immunoblots. Values are the mean and SD from four independent experiments.
Cells were collected and analyzed by immunoblotting as previously described (Bogatkevich et al., J Biol Chem. 2001, 276:45184-45192; Bogatkevich et al., Arthritis Rheum. 2007, 56:3468-3477). Phosphorylation of MET was analyzed using anti-phospho-c-Met [pYpYpY^1230/1234/1235], pY^1349, and pY^1356 antibodies (BioSource International, Inc., Camarillo, Calif.). Total MET was immunobloted using anti-MET (C12) (Santa Cruz Biotechnology, Santa Cruz, Calif.) and anti-MET (25H2) (Cell Signaling, Danvers, Mass.). Anti-type I collagen antibody (Southern Biotechnology, Birmingham, Ala.)), anti-CTGF antibody (Santa Cruz Biotechnology, Santa Cruz, Calif.), and anti-smooth-α-actin antibody (Sigma, St. Louis, Mo.) were also used. […]

In a further data set the target is T1, MET D1398G (Homo sapiens, UniProt P08581, D1380G).
T1 construct: The wild type (WT) full-length c-MET cDNA in pLXSN; expressed in transfected cells; host or cells: lung fibroblasts (LF) and A549 alveolar epithelial cells, infected with recombinant adenovirus (pAdTrack-CMV/AdEasy)
As to the kind of experiment: HGF-induced MET tyrosine phosphorylation in transfected LF and AEC. As to conditions: HGF 50 ng/ml. It is filed as cell-based. As to the method:
(§1) FIG. 1, comprising FIG. 1A and FIG. 1B, depicts MET tyrosine phosphorylation in lung fibroblasts (LF) and alveolar epithelial cells (AEC). FIG. 1A depicts a time course of MET WT and MET D1398G tyrosine phosphorylation as determined in LF and AEC incubated with HGF (50 ng/ml) for various time points. Cell extracts were immunoblotted with anti-phospho-MET or anti-MET polyclonal antibodies (see details in Materials and Methods). FIG. 1B depicts quantitative results of densitometric analysis of immunoblots. Values are the mean and SD from three independent experiments.
(§2) Cells were collected and analyzed by immunoblotting as previously described (Bogatkevich et al., J Biol Chem. 2001, 276:45184-45192; Bogatkevich et al., Arthritis Rheum. 2007, 56:3468-3477). Phosphorylation of MET was analyzed using anti-phospho-c-Met [pYpYpY^1230/1234/1235], pY^1349, and pY^1356 antibodies (BioSource International, Inc., Camarillo, Calif.). Total MET was immunobloted using anti-MET (C12) (Santa Cruz Biotechnology, Santa Cruz, Calif.) and anti-MET (25H2) (Cell Signaling, Danvers, Mass.). Anti-type I collagen antibody (Southern Biotechnology, Birmingham, Ala.)), anti-CTGF antibody (Santa Cruz Biotechnology, Santa Cruz, Calif.), and anti-smooth-α-actin antibody (Sigma, St. Louis, Mo.) were also used.
(§3) As an initial approach to evaluate the functional consequences of D1398G mutation, HGF-induced MET autophosphorylation was studied in LF and AEC (A549 cell line) transfected either with MET WT or D1398G mutant. MET tyrosine phosphorylation was assessed using anti-phospho-c-Met[pYpYpY^1230/1234/1235], pY^1349, and pY^1356 antibodies. Treatment with HGF induced rapid phosphorylation of MET WT at tyrosine 1230, 1234, and 1235 in both LF and AEC. Maximal phosphorylation was observed within 5 minutes of HGF treatment and decreased by 20 minutes following HGF treatment (FIG. 1). […] The time course of HGF-induced phosphorylation at tyrosine 1356 in LF resembled tyrosine 1230, 1234, and 1235 phosphorylation with maximal levels observed within 5 minutes of HGF treatment. Tyrosine 1356 phosphorylation in AEC appeared to be stronger than in LF with maximal levels observed within 20 minutes of HGF treatment.

Another data set concerns the target T2, MET WT (Homo sapiens, UniProt P08581).
T2 construct: The wild type (WT) full-length c-MET cDNA in pLXSN; expressed in transfected cells; host or cells: lung fibroblasts (LF) and A549 alveolar epithelial cells, infected with recombinant adenovirus (pAdTrack-CMV/AdEasy)
The description is as above. Format: cell-based. Particulars: HGF 50 ng/ml. As to the method:
as §1, §2, §3

Data set [3] has as its system normal LF transfected with MET WT or MET D1398G. As to the kind of experiment: Collagen, SMA, CTGF in transfected TGFβ-stimulated normal lung fibroblasts, Western blot. Format: cell-based, human. As to conditions: 48 hours. As to the method:
FIG. 3, comprising FIG. 3A through FIG. 3D, depicts expression of type I collagen, SMA, and CCN2 in normal lung fibroblasts (LF) transfected with MET WT and MET D1398G. Transfected […] lung fibroblasts were serum-starved for 24 hours followed by incubation for 48 hours with recombinant TGFβ (5 ng/ml) and/or HGF (50 ng/ml). FIG. 3A depicts that the cells were collected with lysis buffer and analyzed by Western blot with indicated antibodies including MET as a transfection efficiency control and anti-β-actin antibody as a loading control. FIG. 3B through FIG. 3D depict densitometric analysis of immunoblots for collagen, SMA and CCN2 respectively. Values are the mean and SD from three independent experiments.
Cells were collected and analyzed by immunoblotting as previously described (Bogatkevich et al., J Biol Chem. 2001, 276:45184-45192; Bogatkevich et al., Arthritis Rheum. 2007, 56:3468-3477). Phosphorylation of MET was analyzed using anti-phospho-c-Met [pYpYpY^1230/1234/1235], pY^1349, and pY^1356 antibodies (BioSource International, Inc., Camarillo, Calif.). Total MET was immunobloted using anti-MET (C12) (Santa Cruz Biotechnology, Santa Cruz, Calif.) and anti-MET (25H2) (Cell Signaling, Danvers, Mass.). […]
(Immunoblotting shows a protein as a band on a membrane.)

In the next data set the test system is Ras. Put plainly: Ras Activity Assay (G-LISA, Ras-GTP). Format: cell-based, human. As to conditions: 50 ng/ml; LF and AEC transfected with MET WT. How it is done: (§4) FIG. 4, comprising FIG. 4A through FIG. 4D, depicts the effect of HGF on Ras activation and Erk1/2 phosphorylation in lung fibroblasts (LF) and alveolar epithelial cells (AEC). FIG. 4A depicts HGF-induced Erk1/2 phosphorylation in LF and AEC transfected with MET WT and MET D1398G was determined in cells treated with HGF (50 ng/ml) for 10 min. Cell extracts were immunoblotted with anti-phospho-Erk1/2 or anti-Erk1/2, anti-MET, and anti-β-actin antibodies. FIG. 4B depicts densitometric analysis of phospho-Erk1/2 immunoblots from three independent experiments. FIG. 4C and FIG. 4D depict Ras activity in LF and AEC respectively, transfected with MET WT and MET D1398G treated with and without HGF (50 ng/ml) for 10 min.
G-LISA Kit (Cytoskeleton Inc., Denver, Colo.) was used to measure endogenous Ras-GTP levels. […] Bound Ras-GTP levels were determined by anti-Ras primary antibody followed by horseradish peroxidase-conjugated secondary antibody. A peroxidase substrate was applied, and the plates were read at 450 nm on a spectrophotometer.
HGF-induced phosphorylation of Erk1/2 is mediated by Ras (Campbell, et al., Oncogene, 1998, 17:1395-413). To investigate whether D1398G mutation affects MET-dependent Ras activation, Ras-GTP in LF and in AEC transfected with MET WT and with MET D1398G was measured.

Another data set has as its system Erk1/2 phosphorylation. As to the kind of experiment: HGF-induced Erk1/2 phosphorylation in transfected LF and AEC. It is filed as cell-based, human. As to conditions: 50 ng/ml for 10 min. As to the method:
as §4
The phosphorylation of p42/p44 MAPK isoforms was analyzed using anti-phospho-Erk1/2 and Erk1/2 antibodies in accordance with the manufacturer's instructions (Cell Signaling Technology, Danvers, Mass.). Immunoblots were routinely stripped and reblotted with anti-β-actin antibody (Sigma, St. Louis, Mo.) as a loading control.
To investigate whether the D1398G mutation affects MAPK signaling pathways, the Erk1/2 phosphorylation was examined. Basal and HGF-induced Erk1/2 phosphorylation were more prominent in AEC as compared with LF. […] The basal level of nonphosphorylated Erk1/2 in LF and AEC was not affected either by HGF stimulation or by transfection with D1398G mutation.

In data set [4] the test system is TGFβ-stimulated lung fibroblasts. As to the kind of experiment: Collagen in TGFβ-stimulated lung fibroblasts, immunoblot. It is filed as cell-based. As to conditions: 1 μg/ml for 24 h; TGFβ 5 ng/ml. As to the method:
FIG. 18 depicts M5 peptide inhibits collagen in TGFβ-stimulated lung fibroblasts. Cells were incubated with and without TGFβ (5 ng/ml) and M5 peptide (1 μg/ml) for 24 h and analyzed by immunoblotting using anti-collagen type I antibody. Beta-actin was used as a loading control.
A peptide containing just the M5 sequence (TRPAS (SEQ ID NO: 4)) was generated and was tested for its effect on collagen.

The record followed here is patent publication US10344071B2, “Identification of novel anti-fibrotic peptide in C-terminal region of the MET receptor tyrosine kinase” (MUSC Foundation for Research Development, priority 2015, dated 2019).

Ends that are not written are not given here. Bounds are passed on as bounds.

Turning to TRPASFWETS [M10], the “lung histology in control mice that received saline and peptide” value in data set [1] was “normal septa, vascular components, and connective tissue”. Further, the “cell viability measured by the ATP-dependent assay” value with cell viability is listed as “does not affect cell viability”.

In the case of “HGF: recombinant hepatocyte growth factor, ligand of the MET receptor”, the “expression of collagen, SMA, and CTGF” value in data set [2] (scleroderma LF transfected with MET D1398G) is “not in LF transfected with mutant MET D1398G”; in data set [2] (scleroderma LF transfected with MET WT), “reduced expression of collagen, SMA, and CTGF”. Further, in the data set with MET D1398G (LF and AEC), the “tyrosine phosphorylation of MET D1398G in contrast to MET WT” value is “decreased and delayed”. Also, the “time of maximal phosphorylation at tyrosine 1356” value with MET D1398G (MET D1398G) was 1 h; with MET WT (AEC) it was ≤ 20 min; with MET WT (LF), ≤ 5 min. In addition, the “time of maximal phosphorylation at tyrosine 1230, 1234, and 1235” value with MET WT (LF and AEC) was ≤ 5 min. Further, the “levels of collagen, SMA and CTGF” value in data set [3] is “decreased the levels of collagen, SMA and CTGF”. Also, the “total Ras activity” value with Ras is given as “significant increase in total Ras activity”. Besides, the “HGF-induced Erk1/2 phosphorylation, MET WT compared with MET D1398G cells” value in the data set with Erk1/2 phosphorylation is recorded as “notably higher”. In the data set with Erk1/2 phosphorylation (LF and AEC transfected with MET WT or MET D1398G), the Erk1/2 phosphorylation result is listed as “further induced Erk1/2 phosphorylation”.

For the substance “TRPAS (M5 Peptide) [C-terminal fragment of the MET receptor]”, the “level of collagen versus fibroblasts stimulated with TGFβ” value in [4] was “reduced level of collagen”.
